# Earlier results as cited in patent US10611818B2, “MHC multimers in tuberculosis diagnostics, vaccine and therapeutics” (priority 2007, dated 2020).
# System: T2 cells
# Conditions: CD8 T-cell clones 8, 9, 10, 11 and 12
sequence,measurement,value
"GLQHWVPEL [BA4697-105, irrelevant peptide used to load T2 target cells]",lysis of T2 cells pulsed with peptide,without killing
